Drawing on ChEMBL document CHEMBL1156647, “Evolving trends in the dereplication of natural product extracts. 2. The isolation of chrysaibol, an antibiotic peptaibol from a New Zealand sample of the mycoparasitic fungus Sepedonium chrysospermum” (J Nat Prod, 2008), this text covers IC50 and Activity for one molecule.

Active and inactive are the calls of the source. The calls are words filed in the database; no cut-off is given here. Residues, ends and D or L forms follow the SMILES beside them.

Test [1] relates to P388. Nature of the test: Cytotoxicity against mouse P388 cells. It is filed as functional, cell-based.
The test system of test [2] is Bacillus subtilis. Nature of the test: Antimicrobial activity against Bacillus subtilis. The format is functional, organism-based.
The test system of test [3] is Candida albicans. Nature of the test: Antimicrobial activity against Candida albicans. The format is functional, organism-based.

One may read the IC50 as the concentration at which inhibition is half-maximal. A high value points to a need for much substance. As to `CC(=O)N[C@@H](Cc1c[nH]c2ccccc12)C(=O)NC(C)(C)C(=O)NC(C)(C)C(=O)N[C@@H](CC(C)C)C(=O)N[C@H](C(=O)N[C@@H](CCC(N)=O)C(=O)NC(C)(C)C(=O)NC(C)(C)C(=O)NC(C)(C)C(=O)N[C@@H](CCC(N)=O)C(=O)N[C@@H](CC(C)C)C(=O)NC(C)(C)C(=O)N1CCC[C@H]1C(=O)N[C@@H](CCC(N)=O)C(=O)N[C@@H](C)CO)C(C)C` [CHRYSAIBOL] (HELM PEPTIDE1{[ac].W.[Aib].[Aib].L.V.Q.[Aib].[Aib].[Aib].Q.L.[Aib].P.Q.[C[C@@H](CO)N[*:1]]}$$$$V2.0), the results for the half-inhibitory concentration (IC50) in test [1] and in test [2] were 6.61 µM and 1.54 µM, respectively. Also, in test [3], the outcome was inactive.
